Key:
[1] = biological target: T1, G Protein-Coupled Receptor, GPR103 (Homo sapiens, UniProt Q96P65); test: Radioligand binding panel (Table S1); conditions: 10 μM T1-11, n 2
T1 construct: purchased MDS Pharma Services Taiwan

R6/2 mice = test: Hemodynamic examination of R6/2 mice; type: in vivo; conditions: subcutaneous Alzet minipump for 48 h, 125 µg/mouse/day
Protocol: Heart rates and blood pressure of conscious and anesthetized mice were measured using a blood pressure monitor (model MK-2000; Muromachi Kikai, Tokyo, Japan) between 10 AM to 6 PM. Values of 12–18 successful readings per mouse were used to determine the blood pressure.
(A) T1-11 (125 µg/mouse/day) or vehicle (CON) was administrated subcutaneously to the indicated mice of 7 weeks old using ALZET osmotic minipumps for 6 weeks. Rotarod performance was assessed. (B, C) T1-11 (125 µg/mouse/day) was administrated subcutaneously to the indicated mice of 9 weeks old using ALZET osmotic minipumps for 48 h. Heart rate (B) and blood pressure (C) were determined by a tail-cuff method. * p<0.05. *** p<0.005. (TIF) Click here for additional data file.

[2] = test system: Calcium Channel L-Type, Phenylalkylamin.; test: Radioligand binding panel (Table S1); set-up: species or system rat; conditions: 10 μM T1-11, n 2
Leptin = biological target: T2, Leptin (Mus musculus, UniProt P48356); test: Radioligand binding panel (Table S1); conditions: 10 μM T1-11, n 2
T2 construct: purchased MDS Pharma Services Taiwan

Endothelin ETA = biological target: T3, Endothelin ETA (Homo sapiens, UniProt P25101); test: Radioligand binding panel (Table S1); conditions: 10 μM T1-11, n 2
T3 construct: purchased MDS Pharma Services Taiwan
T3 sequence (P25101 21-427): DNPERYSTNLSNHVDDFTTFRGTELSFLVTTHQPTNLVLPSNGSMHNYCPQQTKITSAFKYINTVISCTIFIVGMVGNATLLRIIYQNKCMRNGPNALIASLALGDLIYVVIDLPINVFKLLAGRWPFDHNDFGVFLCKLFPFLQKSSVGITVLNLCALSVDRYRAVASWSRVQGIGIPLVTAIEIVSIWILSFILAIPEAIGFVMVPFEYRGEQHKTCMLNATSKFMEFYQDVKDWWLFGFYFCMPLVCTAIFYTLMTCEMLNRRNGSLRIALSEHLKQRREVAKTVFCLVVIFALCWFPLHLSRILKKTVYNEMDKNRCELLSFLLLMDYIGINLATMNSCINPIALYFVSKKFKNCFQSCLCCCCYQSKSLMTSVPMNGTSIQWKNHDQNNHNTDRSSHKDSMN

[3] = biological target: T4, Cholecystokinin CCK. (CCK8) (Homo sapiens, UniProt P32239); test: Radioligand binding panel (Table S1); conditions: 10 μM T1-11, n 2
T4 construct: purchased MDS Pharma Services Taiwan
T4 sequence (P32239 whole entry): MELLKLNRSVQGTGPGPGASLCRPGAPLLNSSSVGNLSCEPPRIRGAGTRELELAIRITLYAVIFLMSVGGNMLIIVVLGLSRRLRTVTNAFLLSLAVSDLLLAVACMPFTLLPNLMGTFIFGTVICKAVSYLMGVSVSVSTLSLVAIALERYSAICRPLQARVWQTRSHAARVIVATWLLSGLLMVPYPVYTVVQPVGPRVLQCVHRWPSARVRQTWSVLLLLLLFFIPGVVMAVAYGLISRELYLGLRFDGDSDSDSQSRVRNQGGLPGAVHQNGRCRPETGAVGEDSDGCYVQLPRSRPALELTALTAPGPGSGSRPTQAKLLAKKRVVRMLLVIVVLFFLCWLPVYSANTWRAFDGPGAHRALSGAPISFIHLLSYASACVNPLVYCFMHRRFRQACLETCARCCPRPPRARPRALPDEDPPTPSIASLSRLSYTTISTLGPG

Neuromedin U NMU1 = biological target: T5, Neuromedin U NMU1 (Homo sapiens, UniProt Q9HB89); test: Radioligand binding panel (Table S1); conditions: 10 μM T1-11, n 2
T5 construct: purchased MDS Pharma Services Taiwan

Phosphodiesterase PDE6 = test: Radioligand binding panel (Table S1); set-up: species or system human; conditions: 10 μM T1-11, n 2
Phosphodiesterase PDE5 = biological target: T6, Phosphodiesterase PDE5 (Homo sapiens, UniProt O76074); test: Radioligand binding panel (Table S1); conditions: 10 μM T1-11, n 2
T6 construct: purchased MDS Pharma Services Taiwan

Bombesin BB3 = biological target: T7, Bombesin BB3 (Homo sapiens, UniProt P32247); test: Radioligand binding panel (Table S1); conditions: 10 μM T1-11, n 2
T7 construct: purchased MDS Pharma Services Taiwan

Histamine H2 = biological target: T8, Histamine H2 (Homo sapiens, UniProt P25021); test: Radioligand binding panel (Table S1); conditions: 10 μM T1-11, n 2
T8 construct: purchased MDS Pharma Services Taiwan

Muscarinic M2 = biological target: T9, Muscarinic M2 (Homo sapiens, UniProt P08172); test: Radioligand binding panel (Table S1); conditions: 10 μM T1-11, n 2
T9 construct: purchased MDS Pharma Services Taiwan

Nicotinic Acetylcholine = test: Radioligand binding panel (Table S1); set-up: species or system human; conditions: 10 μM T1-11, n 2
Progesterone PR-B = biological target: T10, Progesterone PR-B (Homo sapiens, UniProt P06401); test: Radioligand binding panel (Table S1); conditions: 10 μM T1-11, n 2
T10 construct: purchased MDS Pharma Services Taiwan
T10 sequence (P06401 whole entry): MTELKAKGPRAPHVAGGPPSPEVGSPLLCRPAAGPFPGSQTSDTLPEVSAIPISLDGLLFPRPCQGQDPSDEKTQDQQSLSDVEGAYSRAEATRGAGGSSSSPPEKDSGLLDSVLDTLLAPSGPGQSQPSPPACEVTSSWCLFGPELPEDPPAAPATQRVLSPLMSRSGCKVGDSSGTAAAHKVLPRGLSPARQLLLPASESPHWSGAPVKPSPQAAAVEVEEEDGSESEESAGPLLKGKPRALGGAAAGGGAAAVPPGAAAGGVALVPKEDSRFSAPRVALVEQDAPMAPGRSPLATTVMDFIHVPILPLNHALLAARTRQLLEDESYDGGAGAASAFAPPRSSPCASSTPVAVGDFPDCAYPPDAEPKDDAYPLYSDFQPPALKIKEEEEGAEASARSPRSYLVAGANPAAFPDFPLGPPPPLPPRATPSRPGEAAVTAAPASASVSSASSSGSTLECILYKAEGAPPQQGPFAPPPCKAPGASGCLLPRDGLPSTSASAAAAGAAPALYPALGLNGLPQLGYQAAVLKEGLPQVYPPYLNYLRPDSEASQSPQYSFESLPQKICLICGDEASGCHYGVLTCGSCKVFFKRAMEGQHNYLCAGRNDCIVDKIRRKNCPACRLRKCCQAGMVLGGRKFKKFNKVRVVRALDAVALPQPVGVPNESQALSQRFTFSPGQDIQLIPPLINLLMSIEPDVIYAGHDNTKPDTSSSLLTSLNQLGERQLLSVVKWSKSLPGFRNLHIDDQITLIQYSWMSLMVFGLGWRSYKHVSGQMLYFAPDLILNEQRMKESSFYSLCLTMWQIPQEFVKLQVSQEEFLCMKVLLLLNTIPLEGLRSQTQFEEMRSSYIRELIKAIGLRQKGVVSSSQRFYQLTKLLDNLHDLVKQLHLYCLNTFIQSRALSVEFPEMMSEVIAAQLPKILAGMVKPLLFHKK

Adrenergic α 2C = biological target: T11, Adrenergic α 2C (Homo sapiens, UniProt P18825); test: Radioligand binding panel (Table S1); conditions: 10 μM T1-11, n 2
T11 construct: purchased MDS Pharma Services Taiwan

Glutamate, NMDA, Glycine = Glutamate, NMDA, Glycine (Rattus norvegicus, UniProt P35439); test: Radioligand binding panel (Table S1); conditions: 10 μM T1-11, n 2
Sequence of Glutamate, NMDA, Glycine (P35439 394-800 limits assumed): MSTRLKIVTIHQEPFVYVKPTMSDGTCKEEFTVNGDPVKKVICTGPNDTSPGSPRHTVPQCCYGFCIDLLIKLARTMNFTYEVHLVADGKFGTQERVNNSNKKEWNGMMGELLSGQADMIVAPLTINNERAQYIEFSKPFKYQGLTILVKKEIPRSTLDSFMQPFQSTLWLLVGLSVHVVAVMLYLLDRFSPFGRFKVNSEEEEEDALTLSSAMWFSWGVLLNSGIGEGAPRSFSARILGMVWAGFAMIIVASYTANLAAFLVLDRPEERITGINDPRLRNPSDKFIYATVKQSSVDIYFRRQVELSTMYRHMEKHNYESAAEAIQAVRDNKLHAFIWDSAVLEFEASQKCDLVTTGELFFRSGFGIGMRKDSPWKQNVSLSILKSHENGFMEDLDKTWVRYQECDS

Tachykinin NK2 = biological target: T12, Tachykinin NK2 (Homo sapiens, UniProt P21452); test: Radioligand binding panel (Table S1); conditions: 10 μM T1-11, n 2
T12 construct: purchased MDS Pharma Services Taiwan
T12 sequence (P21452 whole entry): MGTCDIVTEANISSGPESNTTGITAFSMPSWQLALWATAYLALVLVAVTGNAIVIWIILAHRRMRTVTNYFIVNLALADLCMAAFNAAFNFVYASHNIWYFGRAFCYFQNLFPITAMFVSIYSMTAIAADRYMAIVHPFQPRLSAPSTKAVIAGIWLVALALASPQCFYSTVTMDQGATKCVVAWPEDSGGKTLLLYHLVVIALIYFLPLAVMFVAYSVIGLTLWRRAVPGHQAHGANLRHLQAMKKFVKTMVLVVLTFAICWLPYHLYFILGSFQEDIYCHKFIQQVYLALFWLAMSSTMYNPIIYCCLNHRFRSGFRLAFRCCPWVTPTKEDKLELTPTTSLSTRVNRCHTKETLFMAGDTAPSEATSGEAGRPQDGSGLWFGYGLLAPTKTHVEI

Histamine H3 = biological target: T13, Histamine H3 (Homo sapiens, UniProt Q9Y5N1); test: Radioligand binding panel (Table S1); conditions: 10 μM T1-11, n 2
T13 construct: purchased MDS Pharma Services Taiwan
T13 sequence (Q9Y5N1 whole entry): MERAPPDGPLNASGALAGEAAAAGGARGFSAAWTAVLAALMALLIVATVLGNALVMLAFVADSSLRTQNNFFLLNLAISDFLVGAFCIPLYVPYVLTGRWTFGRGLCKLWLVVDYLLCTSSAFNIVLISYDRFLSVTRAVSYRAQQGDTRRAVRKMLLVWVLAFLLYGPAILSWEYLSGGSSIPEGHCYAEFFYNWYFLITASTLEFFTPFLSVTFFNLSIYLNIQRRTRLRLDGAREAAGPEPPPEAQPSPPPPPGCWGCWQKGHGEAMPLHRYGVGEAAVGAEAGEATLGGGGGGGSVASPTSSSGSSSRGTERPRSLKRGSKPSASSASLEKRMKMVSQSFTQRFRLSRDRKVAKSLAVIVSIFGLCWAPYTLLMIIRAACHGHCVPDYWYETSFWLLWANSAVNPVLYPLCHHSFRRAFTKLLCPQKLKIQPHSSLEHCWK

Orexin OX 2 = biological target: T14, Orexin OX 2 (Homo sapiens, UniProt O43614); test: Radioligand binding panel (Table S1); conditions: 10 μM T1-11, n 2
T14 construct: purchased MDS Pharma Services Taiwan

Interleukin IL-2 = biological target: T15, Interleukin IL-2 (Mus musculus, UniProt P01590+P16297+P34902); test: Radioligand binding panel (Table S1); conditions: 10 μM T1-11, n 2
T15 construct: purchased MDS Pharma Services Taiwan

[4] = test system: Neurotensin, Non-Selective; test: Radioligand binding panel (Table S1); set-up: species or system mouse; conditions: 10 μM T1-11, n 2
Estrogen ERβ = biological target: T16, Estrogen ERβ (Homo sapiens, UniProt Q92731); test: Radioligand binding panel (Table S1); conditions: 10 μM T1-11, n 2
T16 construct: purchased MDS Pharma Services Taiwan

Prostanoid DP = biological target: T17, Prostanoid DP (Homo sapiens, UniProt Q13258); test: Radioligand binding panel (Table S1); conditions: 10 μM T1-11, n 2
T17 construct: purchased MDS Pharma Services Taiwan

[5] = biological target: T18, Nicotinic Acetylcholine α1, Bungarotoxin (Homo sapiens, UniProt P02708+P07510+Q07001); test: Radioligand binding panel (Table S1)
T18 construct: purchased MDS Pharma Services Taiwan
T18 sequence (P02708 21-457): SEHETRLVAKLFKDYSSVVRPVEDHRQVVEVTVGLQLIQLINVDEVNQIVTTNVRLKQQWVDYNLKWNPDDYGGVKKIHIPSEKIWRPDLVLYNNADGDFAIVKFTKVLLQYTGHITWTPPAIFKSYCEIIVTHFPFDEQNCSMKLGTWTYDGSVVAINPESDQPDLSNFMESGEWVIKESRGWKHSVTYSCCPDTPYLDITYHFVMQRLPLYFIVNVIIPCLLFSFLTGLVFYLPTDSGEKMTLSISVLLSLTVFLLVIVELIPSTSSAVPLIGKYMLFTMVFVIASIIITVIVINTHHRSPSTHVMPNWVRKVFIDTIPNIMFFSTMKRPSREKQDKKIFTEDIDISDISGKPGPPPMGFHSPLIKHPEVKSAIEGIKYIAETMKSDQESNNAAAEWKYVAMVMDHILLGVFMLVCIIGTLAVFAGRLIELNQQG
T18 sequence (P11230 24-501, further chain): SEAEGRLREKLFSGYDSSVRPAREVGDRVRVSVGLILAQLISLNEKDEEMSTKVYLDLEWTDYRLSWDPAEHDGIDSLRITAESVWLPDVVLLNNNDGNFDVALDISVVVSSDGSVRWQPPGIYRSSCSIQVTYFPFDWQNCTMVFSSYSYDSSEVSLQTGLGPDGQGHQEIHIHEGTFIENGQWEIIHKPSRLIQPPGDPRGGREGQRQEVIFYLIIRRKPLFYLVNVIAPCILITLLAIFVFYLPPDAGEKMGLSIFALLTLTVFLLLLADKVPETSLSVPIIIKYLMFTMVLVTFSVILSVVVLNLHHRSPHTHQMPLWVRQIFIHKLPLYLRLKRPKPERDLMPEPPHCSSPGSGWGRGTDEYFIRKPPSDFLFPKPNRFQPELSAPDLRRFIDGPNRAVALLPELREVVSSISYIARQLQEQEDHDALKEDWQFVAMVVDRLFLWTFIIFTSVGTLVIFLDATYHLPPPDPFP
T18 sequence (Q07001 22-517): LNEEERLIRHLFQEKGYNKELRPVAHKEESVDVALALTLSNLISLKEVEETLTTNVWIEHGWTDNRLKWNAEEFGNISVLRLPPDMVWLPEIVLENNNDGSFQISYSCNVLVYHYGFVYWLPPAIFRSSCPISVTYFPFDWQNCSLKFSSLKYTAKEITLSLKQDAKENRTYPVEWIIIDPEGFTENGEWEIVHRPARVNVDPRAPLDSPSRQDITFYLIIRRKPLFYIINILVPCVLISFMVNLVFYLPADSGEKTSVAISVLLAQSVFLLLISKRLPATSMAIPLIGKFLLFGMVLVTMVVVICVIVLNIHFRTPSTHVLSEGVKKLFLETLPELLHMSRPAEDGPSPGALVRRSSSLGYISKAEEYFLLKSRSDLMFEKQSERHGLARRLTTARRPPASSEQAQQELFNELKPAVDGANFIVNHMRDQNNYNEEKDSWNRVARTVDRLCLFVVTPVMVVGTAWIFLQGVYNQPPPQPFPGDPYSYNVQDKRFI
T18 sequence (P07510 23-517): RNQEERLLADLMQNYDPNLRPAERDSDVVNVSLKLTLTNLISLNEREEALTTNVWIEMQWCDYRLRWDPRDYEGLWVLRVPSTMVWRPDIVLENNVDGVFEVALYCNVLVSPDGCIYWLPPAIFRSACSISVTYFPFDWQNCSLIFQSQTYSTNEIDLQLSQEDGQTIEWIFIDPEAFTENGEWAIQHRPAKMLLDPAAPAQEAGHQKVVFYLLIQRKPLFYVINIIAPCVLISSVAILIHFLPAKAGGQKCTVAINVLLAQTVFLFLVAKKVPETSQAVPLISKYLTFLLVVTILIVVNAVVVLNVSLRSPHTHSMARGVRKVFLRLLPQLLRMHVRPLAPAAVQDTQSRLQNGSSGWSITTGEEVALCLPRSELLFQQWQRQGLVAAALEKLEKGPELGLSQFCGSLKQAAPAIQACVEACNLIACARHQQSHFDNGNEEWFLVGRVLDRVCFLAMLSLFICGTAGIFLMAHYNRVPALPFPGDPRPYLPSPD

[6] = test system: Melatonin MT, Non-Selective; test: Radioligand binding panel (Table S1); set-up: species or system chicken; conditions: 10 μM T1-11, n 2
Purinergic P 2Y = test: Radioligand binding panel (Table S1); set-up: species or system rat; conditions: 10 μM T1-11, n 2
Tachykinin NK1 = biological target: T19, Tachykinin NK1 (Homo sapiens, UniProt P25103); test: Radioligand binding panel (Table S1); conditions: 10 μM T1-11, n 2
T19 construct: purchased MDS Pharma Services Taiwan

[7] = T1-11 level in the brain after intraperitoneal injection; type: in vivo, mice; conditions: mouse, ip, 5 mg/kg, 30 min after the intraperitoneal injection, n = 4, mean ± s.e.m., read-out: T1-11 detected in the brain
[8] = test system: GABAA, Benzodiazepine, Central, Ro-15-1788; test: Radioligand binding panel (Table S1); set-up: species or system rat; conditions: 10 μM T1-11, n 2
Thyroid Hormone = test: Radioligand binding panel (Table S1); set-up: species or system rat; conditions: 10 μM T1-11, n 2

## OC[C@H]1O[C@@H](n2cnc3c(NCc4ccc(O)cc4)ncnc32)[C@H](O)[C@@H]1O [T1-11, N ^6-(4-hydroxybenzyl)adenine riboside]
[1]
  inhibition at 10 µM: 2%
R6/2 mice
  Blood pressure: did not change the blood pressure of R6/2 mice
  Heart rate: did not affect their heart rate and blood pressure
[2]
  % Inhibition: -7%
Leptin
  inhibition at 10 µM: 6%
Endothelin ETA
  inhibition at 10 µM: 3%
[3]
  inhibition at 10 µM: -5%
Neuromedin U NMU1
  inhibition at 10 µM: -1%
Phosphodiesterase PDE6
  % Inhibition: 21%
Phosphodiesterase PDE5
  inhibition at 10 µM: 4%
Bombesin BB3
  inhibition at 10 µM: 12%
Histamine H2
  inhibition at 10 µM: -10%
Muscarinic M2
  inhibition at 10 µM: 4%
Nicotinic Acetylcholine
  % Inhibition: 6%
Progesterone PR-B
  inhibition at 10 µM: -8%
Adrenergic α 2C
  inhibition at 10 µM: 10%
Glutamate, NMDA, Glycine
  inhibition at 10 µM: 7%
Tachykinin NK2
  inhibition at 10 µM: 3%
Histamine H3
  inhibition at 10 µM: 4%
Orexin OX 2
  inhibition at 10 µM: -7%
Interleukin IL-2
  inhibition at 10 µM: 0%
[4]
  % Inhibition: 15%
Estrogen ERβ
  inhibition at 10 µM: 40%
Prostanoid DP
  inhibition at 10 µM: 17%
[5]
  inhibition at 10 µM: 3%
[6]
  % Inhibition: -3%
Purinergic P 2Y
  % Inhibition: 17%
Tachykinin NK1
  inhibition at 10 µM: 3%
[7]
  concentration at 30 min: 0.12 ± 0.01 ng/g
[8]
  % Inhibition: 1%
Thyroid Hormone
  % Inhibition: -9%

Source: PMC3119665, “A New Drug Design Targeting the Adenosinergic System for Huntington's Disease” (PLoS ONE, 2011)
